How the values were obtained:
Assay in all cases: relative viability (nuclei count vs DMSO), 5 days (fraction); higher = more cells survive
[1] = compound: C=C(c1ccc(C(=O)O)cc1)c1cc2c(cc1C)C(C)(C)CCC2(C)C [Bexarotene] + Cc1nc(Nc2ncc(C(=O)Nc3c(C)cccc3Cl)s2)cc(N2CCN(CCO)CC2)n1 [Dasatinib] (partner 0.075 µM)
How it was run: (§1)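 Nuclei were stained with Hoechst during a one-step fixation (final 0.05% Triton X-100, 1% formaldehyde, 1 ug/ml Hoechst) carried out 5 days after dosing, then counted on 4× images. The cells, lung cancer lines in 1536-well plates, had been dosed by pin tool the day after seeding with one drug alone or a fixed anchor-drug dose plus five library-drug doses (not always all listed) in √10 steps. Relative viability is the nuclei count in treated wells divided by that in vehicle wells, and each value is the median of duplicate plates.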

[2] = compound: C=C(c1ccc(C(=O)O)cc1)c1cc2c(cc1C)C(C)(C)CCC2(C)C [Bexarotene] + O=C(CCCCCCC(=O)Nc1ccccc1)NO [Vorinostat] (partner 1 µM)
How it was run: as §1

[3] = compound: C=C(c1ccc(C(=O)O)cc1)c1cc2c(cc1C)C(C)(C)CCC2(C)C [Bexarotene] + CC(=O)c1c(C)c2cnc(Nc3ccc(N4CCNCC4)cn3)nc2n(C2CCCC2)c1=O [Palbociclib] (partner 0.5 µM)
How it was run: as §1

[4] = compound: C=C(c1ccc(C(=O)O)cc1)c1cc2c(cc1C)C(C)(C)CCC2(C)C [Bexarotene] + Nc1nc2[nH]cc(CCc3ccc(C(=O)N[C@@H](CCC(=O)O)C(=O)O)cc3)c2c(=O)[nH]1 [Pemetrexed] (partner 0.2 µM)
How it was run: as §1

Row | Cell Line | relative viability ([1]; first compound 0.08 µM) | relative viability ([1]; first compound 0.253 µM) | relative viability ([1]; first compound 0.8 µM) | relative viability ([1]; first compound 2.53 µM) | relative viability ([1]; first compound 8 µM) | relative viability ([2]; first compound 0.08 µM) | relative viability ([2]; first compound 0.253 µM) | relative viability ([2]; first compound 0.8 µM) | relative viability ([2]; first compound 2.53 µM) | relative viability ([2]; first compound 8 µM) | relative viability ([3]; first compound 0.08 µM) | relative viability ([3]; first compound 0.253 µM) | relative viability ([3]; first compound 0.8 µM) | relative viability ([3]; first compound 2.53 µM) | relative viability ([3]; first compound 8 µM) | relative viability ([4]; first compound 0.08 µM) | relative viability ([4]; first compound 0.253 µM) | relative viability ([4]; first compound 0.8 µM) | relative viability ([4]; first compound 2.53 µM) | relative viability ([4]; first compound 8 µM)
1 | PC-3 [JPC-3] | 0.77 | 0.928 | 0.833 | 0.974 | 0.867 | 0.963 | 0.639 | 0.737 | 0.417 | 0.599 | 0.556 | 0.514 | 0.492 | 0.471 | 0.493 | 1.07 | 1.05 | 1.05 | 0.541 | 1
2 | PC-14 | 0.281 | 0.305 | 0.269 | 0.319 | 0.274 | 0.882 | 0.844 | 0.643 | 0.741 | 0.636 | 0.519 | 0.531 | 0.543 | 0.489 | 0.344 | 0.127 | 0.144 | 0.145 | 0.145 | 0.16
3 | RERF-LC-KJ | 0.757 | 0.707 | 0.703 | 0.825 | 0.742 | 0.689 | 0.707 | 0.641 | 0.7 | 0.609 | 1.07 | 1.02 | 0.817 | 0.999 | 0.922 | 0.506 | 0.513 | 0.501 | 0.506 | 0.47
4 | SK-LU-1 | 0.201 | 0.215 | – | 0.2 | 0.203 | 0.924 | 0.866 | – | 0.734 | 0.672 | 0.419 | 0.394 | 0.326 | 0.393 | 0.37 | 1.03 | 1.03 | – | 0.944 | 0.923
5 | SK-MES-1 | 0.283 | 0.459 | 0.348 | 0.401 | 0.313 | 1.2 | 1.28 | 1.11 | 1.06 | 0.936 | 0.347 | 0.352 | 0.314 | 0.313 | 0.267 | 1.04 | 1.12 | 1.08 | 0.961 | 0.735
6 | SW 900 | 0.703 | 0.55 | 0.505 | 0.544 | 0.772 | 0.543 | 0.473 | 0.433 | 0.453 | 0.471 | 0.553 | 0.41 | 0.52 | 0.423 | 0.411 | 0.509 | 0.465 | 0.456 | 0.454 | 0.477
7 | SW 1573 | 0.593 | 0.467 | 0.402 | 0.301 | 0.41 | 0.918 | 0.645 | 1.11 | 0.635 | 0.746 | 0.362 | 0.327 | 0.378 | 0.354 | 0.288 | 0.911 | 0.814 | 0.897 | 0.751 | 0.847
8 | UMC-11 | 0.485 | 0.516 | 0.516 | 0.514 | 0.493 | 0.357 | 0.379 | 0.408 | 0.377 | 0.346 | 0.308 | 0.355 | 0.316 | 0.267 | 0.339 | 0.77 | 0.764 | 0.786 | 0.77 | 0.803

— the supplement of paper PMC10307832
